Results from patent US20100273757A1, “PYRAZINE DERIVATIVES USEFUL AS ADENOSINE RECEPTOR ANTAGONISTS” (Laboratorios Almirall, S.A., priority 2005, published 2010).

target: T1, human A2B receptor (Homo sapiens, UniProt P29275); test: Adenosine 2B receptor subtype competition radioligand binding assay; conditions: [3H]-DPCPX competition, membranes from HEK293 cells expressing human A2B receptor
T1 construct: host or cells: HEK293 cells stably expressing the receptor; membranes prepared from them
T1 sequence (P29275 1-332): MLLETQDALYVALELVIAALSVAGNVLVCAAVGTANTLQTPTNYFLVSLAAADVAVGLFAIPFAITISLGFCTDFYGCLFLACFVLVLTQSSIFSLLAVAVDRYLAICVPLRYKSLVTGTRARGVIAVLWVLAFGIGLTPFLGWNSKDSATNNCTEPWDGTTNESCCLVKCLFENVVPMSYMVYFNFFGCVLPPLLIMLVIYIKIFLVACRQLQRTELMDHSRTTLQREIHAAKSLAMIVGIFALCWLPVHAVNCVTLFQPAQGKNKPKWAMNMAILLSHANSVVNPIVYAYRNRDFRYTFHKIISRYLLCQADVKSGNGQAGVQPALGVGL
Experimental: A2B membranes were prepared from HEK293 cells stably expressing the human A2B receptor that were purchased from Euroscreen (ES-013-C). […] At the end of the incubation, samples were transferred to a GF/C filter plates (Milipore MAFCN0B50) pretreated for 15 min. with 250 μl of Tris-HCl 50 mM pH 6.5 (Buffer B). Samples were then filtered 4 times with 250 μl of buffer B. Samples were counted using 30 μl of Hisafe II (Perkin Elmer) in a Trilux counter.

Ki [nM]	Compound
0.9	Fc1cnccc1-c1nc2cc(-c3cccnc3)[nH]c2nc1-c1cccnc1 [Example 149, 2-(3-Fluoropyridin-4-yl)-3,6-dipyridin-3-yl-5H-pyrrolo[2,3-b]pyrazine]
3	COc1ccc(-c2nc(NC(=O)C3CC3)cnc2-c2ccncc2F)cn1 [Example 119, N-[5-(3-Fluoropyridin-4-yl)-6-(6-methoxypyridin-3-yl)pyrazin-2-yl]cyclopropane carboxamide]

Continued, molecule first:

Compound	Ki [nM]
COc1nc(-c2ccncc2)c(-c2ccco2)nc1N [Example 67, 6-(2-Furyl)-3-methoxy-5-pyridin-4-ylpyrazin-2-amine]	9
O=c1[nH]c2nc(-c3ccncc3)c(-c3cccc(F)c3)nc2[nH]1 [Example 76, 5-(3-Fluorophenyl)-6-pyridin-4-yl-1,3-dihydro-2H-imidazo[4,5-b]pyrazin-2-one]	4
Nc1cnc(-c2ccncc2F)c(-c2cccc(F)c2)n1 [Example 3, 6-(3-Fluorophenyl)-5-(3-fluoropyridin-4-yl)pyrazin-2-amine]	4
O=C(Nc1cnc(-c2ccncc2Cl)c(-c2ccccn2)n1)C1CC1 [Example 22, N-[5-(3-Chloropyridin-4-yl)-6-pyridin-2-ylpyrazin-2-yl]cyclopropanecarboxamide]	16
